# Values of other authors in patent US11339174B2, “γ-spiroketal-γ-lactones and pharmaceutical composition containing same and process for preparation thereof” (Council of Scientific and Industrial Research, priority 2017, dated 2022).
# Columns and labels:
# HL-60 = details: anticancer
Compound,IC50 against HL-60 (HL-60),activity against Staphylococcus aureus (Staphylococcus aureus),activity against Bacillus subtilis (Bacillus subtilis)
C[C@H]1O[C@@H]2C[C@]3(C=CC(=O)O3)O[C@@H]2[C@H]1O [pyrenolide D],4 µg/mL,–,–
massarinoline A,–,active,active
